This passage reports IC50 and CC50 results from ChEMBL document CHEMBL1137279, “Synthesis of N1-arylidene-N2-quinolyl- and N2-acrydinylhydrazones as potent antimalarial agents active against CQ-resistant P. falciparum strains” (Bioorg Med Chem Lett, 2006).

pIC50: −log10 of the molar value.

The subject of series [1] is Plasmodium falciparum. Kind of series: Antimalarial activity against chloroquine-sensitive Plasmodium falciparum 3D7. It is filed as functional, organism-based.
For series [2], the system named is Plasmodium falciparum. Kind of series: Antimalarial activity against chloroquine-resistant Plasmodium falciparum W2. In kind it is functional, organism-based.
For series [3], the system named is Plasmodium falciparum. Kind of series: Antimalarial activity against chloroquine-sensitive Plasmodium falciparum D10. In kind it is functional, organism-based.
For series [4], the system named is Plasmodium falciparum. Kind of series: Antimalarial activity against chloroquine-resistant Plasmodium falciparum K1. It is filed as functional, organism-based.
Series [5] in a line: Cytotoxicity against mouse WEHI cell line by MTT assay. In kind it is cell-based. The note with it: WEHI cells, read-out: ED50 (the source's name). (In general: Formazan colour is commonly taken as a measure of viable cells.)

By pIC50 is commonly meant the IC50 on a negative log10 scale, so that one unit is a factor of ten. A lower pIC50 goes with a high IC50.

Take `COc1ccc2nc3cc(Cl)ccc3c(N/N=C/c3ccc(CN4CCCC4)cc3)c2c1`: the pIC50 is 6.95 in series [1], 6.86 in series [2] and 7.01 in series [3].
On to `COc1ccc2nc3cc(Cl)ccc3c(N/N=C/c3ncc[nH]3)c2n1`, for which the pIC50 in series [1] was 6.55; in series [4], 6.70; in series [2] it was 7.57; in series [3] it was 7.14.
For the compound `COc1ccc(/C=N/Nc2ccnc3ccc(OC)cc23)cc1`, the results for the negative logarithm of the IC50 (pIC50) in series [2] and in series [3] were 6.89 and 7.00, respectively.
On to `CCN(CC)CCCC(C)Nc1ccnc2cc(Cl)ccc12` (stereo not given) [CHLOROQUINE], for which the CC50 in series [5] came to 9700 nM.
Regarding `COc1ccc(/C=N/Nc2ccnc3cc4c(cc23)OCO4)cc1`, the pIC50 in series [1] is 6.81; in series [4], 6.33; in series [2] it was 6.79; in series [3], 6.68.
As to `COc1ccc2nc3cc(Cl)ccc3c(N/N=C/c3ncc[nH]3)c2c1`, in series [5], the CC50 is 5100 nM. For the same compound, the pIC50 in series [1] was 9.00; in series [4], 8.35; in series [2], 7.51; in series [3] it was 7.20.
`COc1ccc2nccc(N/N=C/c3ccc(N(C)C)cc3)c2c1`: the negative-log IC50 (pIC50) in series [2] was 6.98; in series [3], 7.08.
As to `CCN(CC)Cc1ccc(/C=N/Nc2ccnc3ccc(OC)cc23)cc1`, the negative-log IC50 (pIC50) in series [1] was 7.96; in series [4], 7.26; in series [2], 7.10; in series [3], 7.41.
As for `Clc1ccc2c(N/N=C/c3ccc(CN4CCCC4)cc3)ccnc2c1`, in series [5], the CC50 turned out to be 19400 nM. Further, the pIC50 in series [1] was 7.72; in series [4], 7.79; in series [2], 7.23; in series [3], 7.54.
As for `COc1cccc2c(N/N=C/c3ccccc3)ccnc12`, the values for the pIC50 in series [1], in series [2] and in series [3] were 5.24, 6.60 and 6.28, respectively.
For `COc1cccc2c(N/N=C/c3ccc(N(C)C)cc3)ccnc12`, the negative-log IC50 (pIC50) in series [2] is 6.45; in series [3], 6.47.
